From patent publication US20150164901A1, “COMPOUNDS, COMPOSITIONS AND METHODS FOR TREATING OR PREVENTING NEURODEGENERATIVE DISORDERS” (President and Fellows of Harvard College, priority 2012, published 2015)

How the values were obtained:
SMN transcript = assay: Quantitative RT-PCR of SMN transcript in motor neuron cultures (FIG. 6C); type: cell-based; details: compared to control
SMN [1] = assay: Immunocytochemical analysis of SMN in motor neurons derived from mouse embryonic stem cells (FIG. 6D-6G); type: cell-based
Text: FIGS. 6B and 6C are bar graphs quantifying the results in FIG. 6A. […] SMN is shown in red and GFP driven by the motor neuron specific promoter hb9 is shown in green. […] High SMN expressor is defined as those motor neurons that harbor SMN levels greater than the top 10th percentile as defined in the DMSO control. Error bars indicate ±S.E.M.

[2] = tested on: SMN-deficient human motor neurons; assay: Survival of human motor neurons derived from SMA patient iPS cells (FIG. 10C, 10E); type: cell-based; details: SMA Type II (1-51) and SMA Type I iPS-derived motor neurons on glia with Ara C, 7 days
Text: (§1) Representative images are shown for Type II motor neurons. SMN is shown in red, the motor neuron marker islet 1 is shown in green, and the nuclear marker Hoechst is shown in blue. […] Error bars indicate ±S.E.M.

[3] = tested on: human motor neurons derived from ALS patient iPS cells; assay: Survival of human motor neurons derived from wild-type and ALS patient ES or iPS cells (FIG. 11); type: cell-based; details: wild-type (HUES3, 18a) and ALS patient (47a) lines on glia, treated 14 days after 7 days in culture
Text: FIG. 11A are immune stains of motor neurons derived from human wild-type (HUES3, 18a) and ALS patient (47a) ES or iPS cells. […] Representative images are shown for the Hues3 line which expresses GFP under the hb9 promoter shown is green, human nuclear antigen (hNA) shown in pink, and the nuclear marker Hoechst is shown in blue. […] Error bars indicate ±S.E.M.

Brn2+ neurons = assay: Survival of Brn2+ neurons (FIG. 13); type: cell-based; details: compared to DMSO control
SMN [4] = assay: SMN immunostaining in SMA-like mouse motor neurons (FIG. 9C-9D); type: cell-based; details: A2 mouse ES-derived motor neurons, treated four days
Procedure: (§2) FIG. 9A are images of immunostains of motor neurons derived from the ES-cells of A2 mice that lack a functional copy of mSMN but are supplemented with two copies of hSMN2 and thus are deficient but not completely lacking SMN protein were treated with MLN4924 for four days, SMN is shown in red and the hb9 promoter driven-GFP is shown in green. […] The error bars indicate ±S.E.M.

SMN [5] = assay: SMN levels in wild type and patient iPS-derived motor neurons (FIG. 16); type: cell-based, human; details: motor neurons BJ RIPS (WT), A19 (C9 ORF), 27B (SOD1), 1-51N (SMA type II)
Gem counts = Gem counts in wild type and ALS patient motor neurons (FIG. 18); type: cell-based, human; details: motor neurons 18A (WT), A19 (C9 ORF), 31D (TDP43), 27B (SOD1)
SMN [6] = assay: Western blot of SMN in lysates of motor neuron cultures (FIG. 6A-6B); type: cell-based; details: treated for 3 days, DMSO as control
human motor neurons [7] = assay: Motor neuron survival in human motor neurons (summary of data); type: cell-based
Text: (§3) As shown herein, MLN increases SMN in human MNs, both in measures of average SMN and # of high SMN expressors. […] The effect on proliferation can be dissociated, for example, by using AraC in protocols for differentiation of cells into motor neurons.

SMN protein = assay: SMN-specific antibody staining of SMA patient and parent fibroblasts (FIG. 2C); type: cell-based; details: human fibroblasts derived from SMA patients and their parents
Text: FIG. 2A is a Western blot analysis showing the levels of SMN in cells expressing wild-type SMN and the dominant negative form of Cullin1 protein. […] FIGS. 2D and 2E are dose response curves of nuclear (FIG. 2D) and cytoplasmic (FIG. 2E) SMN levels in SMA patient and parent fibroblasts treated with MLN4924 at the indicated time points. The error bars in FIGS. 2D and 2B indicate ±S.E.M. SMN levels are normalized to DMSO control for each cell line at each time point.

[8] = tested on: motor neurons derived from ES cells; assay: Survival of ES cell-derived hb9-GFP motor neurons, time-course imaging (FIG. 7); type: cell-based, mouse
Procedure: FIG. 7A is a line graph showing the results of a time-course analysis of motor neurons derived from ES cells expressing GFP under the motor neuron specific hb9 promoter performed with imaging every 6 hours for a 7 day period. […] The error bars indicate ±S.E.M.

SMN [9] = assay: SMN immunostaining in human motor neurons derived from SMA patient iPS cells (FIG. 10B, 10D, 10F); type: cell-based; details: SMA Type II (1-51) and SMA Type I iPS-derived motor neurons on glia with Ara C, 7 days
Text: as §1

SMN [10] = assay: SMN in human motor neurons (summary of data); type: cell-based; details: human MNs
Text: as §3

SMN [11] = assay: Histogram analysis of SMN expression in motor neurons under SMN RNAi (FIG. 8C); type: cell-based
Text: (§4) MLN4924 is able to reverse the effects of SMN knockdown on motor neuron death. Representative images are shown.

[12] = tested on: proliferation in the culture; assay: Proliferation in motor neuron cultures; type: cell-based
Text: as §3

hb9_RFP motor neurons = assay: SMN knockdown (shRNA lentivirus) induced motor neuron death (FIG. 8A-8B); type: cell-based; details: SMN knockdown using shRNA lentivirus in hb9_RFP motor neurons
Text: as §4

[13] = tested on: SMN-deficient motor neurons; assay: Survival of SMA-like mouse motor neurons derived from ES cells of A2 mice (FIG. 9B); type: cell-based; details: A2 mouse ES-derived motor neurons (no mSMN, two copies of hSMN2), treated four days
Procedure: as §2

motor neurons = assay: Survival of wild type and ALS patient motor neurons (FIG. 17); type: cell-based, human; details: BJ RIPS (WT), 18A (WT), 27B (SOD1), 31D (TDP43), A19 (C9ORF)
human motor neurons [14] = assay: SMN expression distribution in human motor neurons treated with Trichostatin A (FIG. 14); type: cell-based; details: compared to a control

NS(=O)(=O)OC[C@@H]1C[C@@H](n2ccc3c(N[C@H]4CCc5ccccc54)ncnc32)C[C@@H]1O [MLN4924, ((1S,2S,4R)-4-(4-(((S)-2,3-dihydro-1H-inden-1-yl)amino)-7H-pyrrolo[2,3-d]pyrimidin-7-yl)-2-hydroxycyclopentyl)methyl sulfamate]
SMN transcript levels (quantitative RT-PCR) (SMN transcript): not significantly affected
number of high SMN expressing motor neurons (SMN [1]; high SMN expressor = SMN levels greater than the top 10th percentile of DMSO control): dose-dependent effect
amount of low SMN expressors (histogram analysis) (SMN [1]; mouse ES-derived motor neurons): without affecting
number of motor neurons with higher levels of SMN expression (histogram analysis) (SMN [1]; mouse ES-derived motor neurons): increases
average intensity of SMN (SMN [1]; mouse ES-derived motor neurons, treated at plating, fixed four days later, increasing levels of MLN4924): significantly increases in a dose-dependent manner
number of surviving motor neurons [2]: significantly increases
number of surviving motor neurons [3]: significantly increases
survival of Brn2+ neurons (Brn2+ neurons): increases survival
SMN levels (SMN [4]): significantly increases
number of high SMN expressing motor neurons (SMN [4]): significantly increases
SMN levels (SMN [5]): increases SMN levels
Gem counts (Gem counts): increases Gem counts
SMN levels (Western blot) (SMN [6]): significantly increased
survival of motor neurons derived from ALS patients and their parents (human motor neurons [7]): promotes survival
survival of motor neurons derived from SMA patients and their parents (human motor neurons [7]): promotes survival
motor neuron survival (human motor neurons [7]; human motor neurons): promote motor neuron survival
MN survival, preliminary results (human motor neurons [7]; preliminary, believed to depend on the amount of proliferation in the culture): variable
SMN protein (SMN-specific antibody staining) (SMN protein): stabilization of SMN protein
motor neuron survival (time-course analysis) ([8]; imaging every 6 hours for a 7 day period): significantly increases
motor neuron survival (dose response) ([8]; mouse-ES derived motor neurons): dose-dependent significant increase
SMN levels (SMN [9]): significantly increases
number of high SMN expressing motor neurons (SMN [9]): significantly increases
# of high SMN expressors (SMN [10]): increases
average SMN (SMN [10]): increases
number of high SMN expressing motor neurons (SMN [11]): increases
proliferation [12]: inhibits proliferation
effect of SMN RNAi on inducing motor neuron death (hb9_RFP motor neurons): significantly inhibits
number of surviving motor neurons [13]: significantly increases
survival of motor neurons (motor neurons): increases the survival

CC(/C=C/C(=O)NO)=C\[C@@H](C)C(=O)c1ccc(N(C)C)cc1 [Trichostatin A]
number of low SMN expressing motor neurons (human motor neurons [14]): selectively reduces
